Experimental data published in patent publication US9783556B2, “Kinase inhibitors” (RESPIVERT LIMITED, priority 2012, dated 2017).

What was measured:
[1] = tested on: TNBS-induced colitis in mice; assay: TNBS-induced colitis in mice; format: in vivo
Description: On Day 0 of the study TNBS (200 μL) is administered intra-colonically via a plastic catheter followed by BID dosing of the vehicle, reference or test compound for 2 or 4 days. During the study animals are weighed every day and stool observations are made and recorded as a score, based on stool consistency. At the time of sacrifice on Day 2 (or Day 4) the large intestine is removed and the length and weight recorded. Sections of the colon are taken for either MPO analysis to determine neutrophil infiltration or for histopathology involving scoring to determine disease severity.

PBMCs [2] = assay: IL-2 and IFN gamma release in CD3/CD28 stimulated PBMC cells; format: cell-based; conditions: Homo sapiens
Description: PBMCs from healthy subjects are separated from whole blood using a density gradient (Lymphoprep, Axis-Shield Healthcare). Cells are added to a 96 well plate pre-coated with a mixture of CD3/CD38 monoclonal antibodies (0.3 μg/mL eBioscience and 3 μg/mL BD Pharmingen respectively). Compound at the desired concentration is then added to the wells and the plate left for 3 days under normal tissue culture conditions. Supernatants are harvested and IL-2 and IFN gamma release determined by Sandwich ELISA (Duo-set, R&D System). The IC50 is determined from the dose response curve.

PBMCs [3] = assay: LPS-induced TNFα/IL-8 release in PBMC cells; format: cell-based; conditions: Homo sapiens, LPS-stimulated PBMCs, IL-8, read-out: IC50 Values for Inhibition of Cytokine Release PBMCs IL-8
Description: Peripheral blood mononuclear cells (PBMCs) from healthy subjects are separated from whole blood using a density gradient (Lymphoprep, Axis-Shield Healthcare). The PBMCs are seeded in 96 well plates and treated with compounds at the desired concentration for 2 hours before addition of 1 ng/mL LPS (Escherichia Coli 0111:B4 from Sigma Aldrich) for 24 hours under normal tissue culture conditions (37° C., 5% CO2). The supernatant is harvested for determination of IL-8 and TNFα concentrations by sandwich ELISA (Duo-set, R&D systems) and read on the fluorescence microplate reader (Varioskan® Flash, ThermoFisher Scientific). The concentration at 50% inhibition (IC50) of IL-8 and TNFα production is calculated from the dose response curve.

Syk = Syk (Homo sapiens (Human), UniProt P43405); assay: Syk enzyme inhibition (Z-LYTE FRET); format: biochemical
Description: (§1) The enzyme inhibitory activities of compounds disclosed herein are determined by FRET using synthetic peptides labelled with both donor and acceptor fluorophores (Z-LYTE, Invitrogen Ltd., Paisley, UK).
(§2) The inhibitory activities of compounds of the invention against c-Src and Syk enzymes (Invitrogen), are evaluated in a similar fashion to that described hereinabove. The relevant enzyme (3000 ng/mL or 2000 ng/mL respectively, 2.5 μL) is incubated with the test compound (either 4 μg/mL, 0.4 μg/mL, 0.04 μg/mL, or 0.004 μg/mL, 2.5 μL each) for 2 hr at RT. The FRET peptides (8 μM, 2.5 μL), and appropriate ATP solutions (2.5 μL, 800 μM for c-Src, and 60 μM ATP for Syk) are then added to the enzymes/compound mixtures and incubated for 1 hr. Development reagent (protease, 5 μL) is added for 1 hr prior to detection in a fluorescence microplate reader (Varioskan® Flash, ThermoFisher Scientific).
(§3) In all cases, the site-specific protease cleaves non-phosphorylated peptide only and eliminates the FRET signal. Phosphorylation levels of each reaction are calculated using the ratio of coumarin emission (donor) over fluorescein emission (acceptor), for which high ratios indicate high phosphorylation and low ratios indicate low phosphorylation levels. The percentage inhibition of each reaction is calculated relative to non-inhibited control and the 50% inhibitory concentration (IC50 value) is then calculated from the concentration-response curve.

GSK 3α = GSK 3α (Homo sapiens (Human), UniProt P49840); assay: GSK 3α enzyme inhibition (Z-LYTE FRET); format: biochemical; conditions: read-out: IC50 Values for Enzyme Inhibition GSK3α
Description: as §1
The following two assay variants can be used for determination of GSK 3α inhibition.
The inhibitory activities of compounds of the invention against the GSK 3α enzyme isoform (Invitrogen), are evaluated by determining the level of activation/phosphorylation of the target peptide. The GSK3-α protein (500 ng/mL, 2.5 μL) is mixed with the test compound (2.5 μL at either 4 μg/mL, 0.4 μg/mL, 0.04 μg/mL, or 0.004 μg/mL) for 2 hr at RT. The FRET peptide (8 μM, 2.5 μL), which is a phosphorylation target for GSK3α, and ATP (40 μM, 2.5 μL) are then added to the enzyme/compound mixture and the resulting mixture incubated for 1 hr. Development reagent (protease, 5 μL) is added for 1 hr prior to detection in a fluorescence microplate reader (Varioskan® Flash, ThermoFisher Scientific).
as §3
This method follows the same steps as Method 1 above, but utilises a shorter period of mixing of the test compound (105 minutes instead of 2 hours) with the GSK3-α protein.

HT29 cells = assay: IL-1β-induced IL-8 release in HT29 cells; format: cell-based; conditions: Homo sapiens, HT-29, IL-1β-stimulated HT29 cells, read-out: IC50 Values for Inhibition of Cytokine Release HT29 cells IL-8
Description: HT29 cells, a human colon adenocarcinoma cell line, are plated in a 96 well plate (24 hrs) and pre-treated with compounds at the desired concentration for 2 hours before addition of 5 ng/mL of IL-1β (Abcam) for 24 hours. Supernatants are harvested for IL-8 quantification by Sandwich ELISA (Duo-set, R&D System). The IC50 is determined from the dose response curve.

[4] = target: p38 MAPKα isoform (MAPK14) (Homo sapiens (Human), UniProt Q16539); assay: p38 MAPKα enzyme inhibition (Z-LYTE FRET); format: biochemical
Description: as §1
The following two assay variants can be used for determination of p38 MAPKα inhibition.
The inhibitory activities of test compounds against the p38 MAPKα isoform (MAPK14: Invitrogen), are evaluated indirectly by determining the level of activation/phosphorylation of the down-stream molecule, MAPKAP-K2. The p38 MAPKα protein (80 ng/mL, 2.5 μL) is mixed with the test compound (2.5 μL of either 4 μg/mL, 0.4 μg/mL, 0.04 μg/mL or 0.004 μg/mL) for 2 hr at RT. […] The mixture is incubated for 1 hr at RT. Development reagent (protease, 5 μL) is added for 1 hr prior to detection in a fluorescence microplate reader (Varioskan® Flash, ThermoFisher Scientific).
This method follows the same steps as Method 1 above, but utilises a higher concentration of the p38 MAPKα protein (2.5 μL of 200 ng/mL protein instead of 2.5 μL of 80 ng/mL protein) for mixing with the test compound.
as §3

c-Src = c-Src (Homo sapiens (Human), UniProt P12931); assay: c-Src enzyme inhibition (Z-LYTE FRET); format: biochemical
Description: as §1, §2, §3

[5] = TNBS mice, conducted over 2 days

Chain of c-Src (P12931 whole entry, looked up): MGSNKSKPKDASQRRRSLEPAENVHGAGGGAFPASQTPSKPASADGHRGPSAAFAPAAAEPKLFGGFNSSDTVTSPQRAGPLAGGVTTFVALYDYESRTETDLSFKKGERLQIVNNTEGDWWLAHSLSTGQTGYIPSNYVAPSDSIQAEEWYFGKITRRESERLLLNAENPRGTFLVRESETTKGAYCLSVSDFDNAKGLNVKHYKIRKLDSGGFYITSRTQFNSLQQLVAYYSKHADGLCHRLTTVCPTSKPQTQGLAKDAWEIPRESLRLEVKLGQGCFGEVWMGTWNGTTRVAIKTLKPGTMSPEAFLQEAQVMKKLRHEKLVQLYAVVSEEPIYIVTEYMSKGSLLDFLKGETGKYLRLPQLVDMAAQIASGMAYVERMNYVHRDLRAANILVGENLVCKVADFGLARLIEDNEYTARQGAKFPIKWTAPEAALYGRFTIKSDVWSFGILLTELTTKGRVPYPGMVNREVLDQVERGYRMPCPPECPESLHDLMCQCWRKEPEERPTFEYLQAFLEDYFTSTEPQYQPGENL
Chain of p38 MAPKα isoform (MAPK14) (Q16539 whole entry, canonical isoform): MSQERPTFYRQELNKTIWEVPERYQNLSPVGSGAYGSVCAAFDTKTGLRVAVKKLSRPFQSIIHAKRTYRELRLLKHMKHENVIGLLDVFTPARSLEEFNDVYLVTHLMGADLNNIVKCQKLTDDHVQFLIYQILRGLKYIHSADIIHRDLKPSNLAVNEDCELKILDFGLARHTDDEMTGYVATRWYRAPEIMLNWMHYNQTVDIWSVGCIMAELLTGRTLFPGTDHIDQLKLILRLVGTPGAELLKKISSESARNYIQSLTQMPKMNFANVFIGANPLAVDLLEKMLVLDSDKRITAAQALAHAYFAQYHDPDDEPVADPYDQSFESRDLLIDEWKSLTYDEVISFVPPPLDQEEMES
Chain of GSK 3α (P49840 whole entry): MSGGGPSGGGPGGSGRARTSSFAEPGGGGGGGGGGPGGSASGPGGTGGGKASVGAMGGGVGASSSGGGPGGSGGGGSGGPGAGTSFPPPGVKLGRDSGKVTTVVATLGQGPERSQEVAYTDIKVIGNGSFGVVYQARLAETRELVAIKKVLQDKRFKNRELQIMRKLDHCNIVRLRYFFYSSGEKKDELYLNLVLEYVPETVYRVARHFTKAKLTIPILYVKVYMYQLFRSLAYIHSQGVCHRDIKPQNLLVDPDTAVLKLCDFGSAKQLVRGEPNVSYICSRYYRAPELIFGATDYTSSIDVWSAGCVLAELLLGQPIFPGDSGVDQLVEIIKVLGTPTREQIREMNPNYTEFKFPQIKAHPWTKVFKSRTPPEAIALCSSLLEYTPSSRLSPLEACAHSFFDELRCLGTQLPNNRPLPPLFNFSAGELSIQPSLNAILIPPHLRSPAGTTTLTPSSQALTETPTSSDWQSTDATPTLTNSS

| Structure (SMILES) | Ulcer grade ([1]; TNBS mice, reference item, dose not given, vehicle 3.7 ± 0.3) | LP inflammation ([1]; TNBS mice, reference item, dose not given, vehicle 4.1 ± 0.2) | IC50 (PBMCs [2]; IFNγ, read-out: IC50 Values for Inhibition of Cytokine Release PBMCs IFNγ) | IC50 (PBMCs [2]; IL-2, read-out: IC50 Values for Inhibition of Cytokine Release PBMCs IL-2) | IC50 (PBMCs [3]) | IC50 (Syk) | IC50 (GSK 3α) | IC50 (HT29 cells) | IC50 [4] | Ulcer grade ([1]; TNBS mice, 1 mg/kg oral BID, 2 days, vehicle 3.7 ± 0.3, non-diseased 0 ± 0) | LP inflammation ([1]; TNBS mice, 1 mg/kg oral BID, 2 days, vehicle 4.1 ± 0.2, non-diseased 0.3 ± 0.2) | Ulcer grade ([1]; TNBS mice, 5 mg/kg oral BID, 2 days, vehicle 3.7 ± 0.3, non-diseased 0 ± 0) | LP inflammation ([1]; TNBS mice, 5 mg/kg oral BID, 2 days, vehicle 4.1 ± 0.2, non-diseased 0.3 ± 0.2) | activity in in vivo model of colonic inflammation (histopathology analysis) [1, 5] | inflammatory cell infiltrate in the reticular and laminar propria zone [1, 5] | ulcer grade and epithelial repair compared to the vehicle control ([1]; dosed orally at 5 mg/kg) | IC50 (c-Src) |
| --- | --- | --- | --- | --- | --- | --- | --- | --- | --- | --- | --- | --- | --- | --- | --- | --- | --- |
| Nc1ccc(O)c(C(=O)O)c1 [Example 5-ASA, 5-aminosalicylic acid, reference compound] | 3.0 ± 0.5 | 2.3 ± 0.3 |  |  |  |  |  |  |  |  |  |  |  |  |  |  |  |
| COCCOCCOCCOc1cc(Nc2nccc(Oc3ccc(NC(=O)Nc4cc([Si](C)(C)C)nn4-c4ccc(C)cc4)c4ccccc34)n2)cc(OC)c1 [Example 21, 1-(4-((2-((3-Methoxy-5-(2-(2-(2-methoxyethoxyl)ethoxy)ethoxy)phenyl)amino)pyrimidin-4-yl)oxy)naphthalen-1-yl)-3-(1-(p-tolyl)-3-(trimethylsilyl)-1H-pyrazol-5-yl)urea] |  |  | 2 nM | 137 nM | 2 nM | 89 nM | 11600 nM | 2 nM | 204 nM | 3.3 ± 0.5 | 3.8 ± 0.3 | 3.2 ± 0.4 | 2.7 ± 0.3 | significant activity | marked reduction | marked improvements | 17 nM |
